System: Caco-2 cells
Experiment: Endosomal trafficking proteins in Caco-2 cells (immunoblot, endosomal fractions)
Type: cell-based, human
Protocol: Human colon adenocarcinoma-derived Caco-2 and T84 cells were obtained from the ATCC. Cells were maintained in T25 flask in Modified Eagle Medium (MEM) for Caco-2, or Ham's F12+DMEM (1:1) for T84, supplemented with 10% fetal bovine serum (FBS), 2 mM Glutamine+1% Non Essential Amino Acids (NEAA) and the antibiotics penicillin\streptomycin (100 units/ml) (all reagents from Lonza) (Luciani, A., et al. 2010. Cells were grown in Transwells (Corning, 3470 or 3460) under the normal condition (Luciani, A., et al. 2012). Briefly, 8×10^4 or 5×10^5 cells were seeded in 6.5-mm diameter or 12-mm diameter, respectively, and grown until the RT reached 800 to 1,200 Ω·cm2. Transwells with a pore size of 0.4 μm were used. Medium in both the apical and basolateral chambers was changed every other day. Cells were treated with 20 μg/ml of either α-gliadin peptide P31-43 or […] or scrambled PGAV or modified P31-43 either biotin-tagged or not, for different time point (from 1 h short challenge up to 24 h). Cells were also treated with 50 or 100 μg/ml of P57-68 or PGAV peptides for 3 h. Caco-2 or T84 cells were also treated with: CFTR potentiators VX-770 (10 μM) or VX-532 (20 μM) (Selleck chemicals) or Genistein (10 μM) (Sigma-Aldrich) or in presence or absence of CFTR inhibitor172 (CFTRinh172, 20 μM) or 3-methyl-adenine (3-MA, 20 μM) (Calbiochem), Z-DON (20 nM, Zedira) or BAPTA-AM (10 μM, Calbiochem).
The whole lysate or membrane fraction proteins of cell lines and mice intestine homogenates were obtained from treated and untreated cells or mice as described. The equal amount of protein were resolved by SDS-PAGE gel and blotted with antibodies against: SQSTM1, (Sigma Aldrich, 108k4767) 1:1000, PPARγ (Santa Cruz Biotechnology, sc7273) 1:500, BECN1 (Abcam, ab58878) 1:1000, CFTR clone M3A7 (Abcam, ab4067) 1:500, phospho-ERK1/2 (php42/44, Cell Signaling Technology, #91101) 1:1000, UVRAG (Santa Cruz Biotechnology sc8215) 1:1000, NHERF-1 (BD, 611161) 1:1000, EZRIN (BD, 610603) 1:1000, hVps34 (SigmaV9764) 1:300, biotin (Abcam, ab1227) 1:2000, PKAr2a (BD, 610625) 1:500, Ubiquitin (Cell Signaling clone P4D1, #3936) 1:1000, CHIP (Calbiochem PC711) 1:500, Caspase-1 p10 (M-20) (Santa Cruz Biotechnology, sc-514) 1:200, NLRP3 (Abcam, ab4207), 1:500, IDO1 (monoclonal; cv152) 1:1000^[80], used as primary antibodies. Normalization was performed by probing the membrane with anti-β-actin (Cell Signaling, #4970) 1:1000, anti-Gapdh (Sigma-Aldrich, G8795) 1:1000 and anti-flottilin (Abcam ab15148) 1:1000 antibodies. Immunoprecipitations of endogenous proteins were performed on 500 μg of lysates from Caco-2 cells. The proteins were incubated for 12-18 h at 4° C. with 10 ug\ml of specific antibody followed by the addition of Protein A/G-agarose beads for 4 h at 4° C. […]

Compound | Rab5 and Rab7 levels in endosomal protein fractions | total cellular abundance of BECN1, hVps34 and UVRAG | effect on P31-43-induced reduction of BECN1, hVps34, UVRAG, Rab5 and Rab7 (lost if 3-MA or CFTR inhibitor added)
α-gliadin peptide LGQQQPFPPQQPY (SEQ ID 1), induces an enterocyte stress response (P31-43 sequence of alpha-gliadin) | decreased | reduced the total cellular abundance | 
CC(C)(C)c1cc(C(C)(C)C)c(NC(=O)c2c[nH]c3ccccc3c2=O)cc1O [VX-770, N-(2,4-di-tert-butyl-5-hydroxyphenyl)-4-oxo-1,4-dihydroquinoline-3-carboxamide] |  |  | counteracted
